Assay results from PMC2959027, “Expression and function of human hemokinin-1 in human and guinea pig airways” (Respiratory Research, 2010).
No end group written: not given here.

Experiments:
Format in all cases: cell-based
human bronchi [1] = assay: Effect of NK1, NK2 or NK3 receptor antagonists on peptide-induced contraction of human isolated bronchi; conditions: phosphoramidon 10^-6 M; for effect of antagonist on contraction by cumulative additions of hHK-1 / response to a single addition of 10^-6 M hHK-1 in the presence of antagonist / effect of antagonist on the response to [Sar^9,Met(O2)^11] SP (10^-6 M), single addition: antagonist 10^-7 M; for effect of antagonist on contraction by cumulative additions of hHK-1: n = 5-12; for response to a single addition of 10^-6 M hHK-1 in the presence of antagonist: % of ACh 3 mM, control 42 ± 4%, not significant, mean ± s.e.m., n = 6-12; for effect of antagonist on the response to [Sar^9,Met(O2)^11] SP (10^-6 M), single addition: n = 6; for effect of the association of SR 140333 and SR 48968 on contraction to a single addition of 10^-6 M hHK-1: both antagonists 10^-7 M together
Source text: (§1) Human bronchial tissues were removed from 47 patients undergoing surgical resection at Foch Hospital (Suresnes, France) or Val d'or Clinic (Saint Cloud, France) for lung cancer (31 men and 16 women; age = 64 ± 9 years). Just after resection, segments of human bronchi with an inner diameter (ID) of 1 to 3 mm were taken as far as possible from the malignant lesion. Male Hartley guinea pigs (Charles River, L'Arbresle, France) weighing 300 to 350 g were sacrificed by cervical dislocation, and tracheas and proximal bronchi were removed. After the removal of adhering lung parenchyma and connective tissues, rings from human bronchi (5-7 mm long, […]) and guinea pig trachea (3 mm long, 3 mm ID) or proximal airways (3 mm long, 1 mm ID) were prepared. 8 to 24 segments of human bronchi were obtained from each patient, whereas 8 trachea segments and 2 to 3 main bronchi segments were obtained from each guinea pig. For RT-PCR analysis, human bronchi were isolated within 1 hour after resection, immediately disrupted and homogenized in TRIzol reagent (Invitrogen) with a Potter Elvehjem homogenizer, and homogenates were kept frozen at -80°C until mRNA extraction. Experiments with human lung tissues were approved by the Regional Ethics Committee for Biomedical Research and animals were used as recommended by animal care guidelines.
(§2) Human bronchial rings and guinea pig tracheal and bronchial rings were suspended on hooks in 5 mL organ bath containing a modified Krebs-Henseleit solution (NaCl 119, KCl 4.7, CaCl2 2.5, KH2PO4 1.2, NaHCO3 25 and glucose 11.7 mM), maintained at 37°C and oxygenated with 95% O2 and 5% CO2. An initial tension of 2 g was applied to tissues, according to previously described protocols. Changes of tension were measured isometrically with Gould strain gauges (UF1; Piodem, Canterburry, Kent, UK); and were recorded and post-processed with IOX and Datanalyst softwares (Emka Technologies France, Paris). During the initial stabilization period (30 min), tissues were washed every 10 minutes with Krebs-Henseleit solution. Phosphoramidon was used to inhibit enzymatic degradation of tachykinins by NEP [21, 40]. Phosphoramidon (10^-6 M) was added in organ bath with or without NK1-, NK2- or NK3-receptor antagonists (SR 140333, SR 48968 and SR 142801, 10^-7 M) after the first stabilization period. Antagonist concentrations were chosen based on their reported affinities for human tachykinin receptors and on their ability to antagonize HK-1-induced responses at similar concentrations in other models. Tissues were then equilibrated 1 hour and concentration-response curves to tachykinins and related peptides were established by applying cumulative concentrations of peptides at 5 to 10 min intervals in semi-logarithmic increments, or by applying a single concentration of peptide. Only one concentration-response curve to tachykinins was recorded in each strip, and each experiment was performed in duplicate. Maximal response was determined by a final addition of acetylcholine hydrochloride (ACh, 3 mM). Contractile responses to tachykinins and related compounds were expressed as percentage of that induced by ACh. The pD2 (defined as the negative log of the molar drug concentration that caused 50% of maximal effect) were calculated from the log concentration-effect curves. When the pD2 value was not assessable (maximal effect (Emax) not reached), it was replaced by the -log EC20 (defined as the negative log of the drug concentration that caused 20% of maximal contraction with ACh). All values in the text and in the figures are expressed as arithmetic mean ± standard error of the mean (s.e.m) of duplicate experiments on tissues from the given (n) number of individuals or animals.

guinea pig main bronchi [2] = assay: Effect of NK1 or NK2 receptor antagonists on hHK-1-induced contraction of guinea pig main bronchi; conditions: antagonist 10^-7 M; cumulative additions of hHK-1; phosphoramidon 10^-6 M; n = 5-7
Source text: (§3) Human bronchial tissues were removed from 47 patients undergoing surgical resection at Foch Hospital (Suresnes, France) or Val d'or Clinic (Saint Cloud, France) for lung cancer (31 men and 16 women; age = 64 ± 9 years). Just after resection, segments of human bronchi with an inner diameter (ID) of 1 to 3 mm were taken as far as possible from the malignant lesion. Male Hartley guinea pigs (Charles River, L'Arbresle, France) weighing 300 to 350 g were sacrificed by cervical dislocation, and tracheas and proximal bronchi were removed. […]
(§4) Human bronchial rings and guinea pig tracheal and bronchial rings were suspended on hooks in 5 mL organ bath containing a modified Krebs-Henseleit solution (NaCl 119, KCl 4.7, CaCl2 2.5, KH2PO4 1.2, NaHCO3 25 and glucose 11.7 mM), maintained at 37°C and oxygenated with 95% O2 and 5% CO2. […] Changes of tension were measured isometrically with Gould strain gauges (UF1; Piodem, Canterburry, Kent, UK); and were recorded and post-processed with IOX and Datanalyst softwares (Emka Technologies France, Paris). […] Only one concentration-response curve to tachykinins was recorded in each strip, and each experiment was performed in duplicate. Maximal response was determined by a final addition of acetylcholine hydrochloride (ACh, 3 mM). Contractile responses to tachykinins and related compounds were expressed as percentage of that induced by ACh. […]

guinea-pig trachea [3] = assay: Effect of NK1 or NK2 receptor antagonists on hHK-1-induced contraction of guinea pig trachea; conditions: for effect of antagonist on contractions induced by hHK-1, guinea-pig trachea: antagonist 10^-7 M, cumulative additions of hHK-1, phosphoramidon 10^-6 M
Source text: as §3, with “removed. After the removal of adhering lung parenchyma and connective tissues, rings from human bronchi (5-7 mm long, […]) and guinea pig trachea (3 mm long, 3 mm ID) or proximal airways (3 mm long, 1 mm ID) were prepared. 8 to 24 segments of human bronchi were obtained from each patient, whereas 8 trachea segments and 2 to 3 main bronchi segments were obtained from each guinea pig.” for “removed.”
as §4, with “ACh. The pD2 (defined as the negative log of the molar drug concentration that caused 50% of maximal effect) were calculated from the log concentration-effect curves.” for “ACh.”

human bronchi [4] = assay: Cross-desensitization of NK1 receptors after consecutive applications of hHK-1 and [Sar^9,Met(O2)^11] SP on human bronchi; conditions: phosphoramidon 10^-6 M, n = 5
Description: as §2

human bronchi [5] = assay: Contraction of human isolated bronchi by tachykinin peptides (organ bath, isometric tension); conditions: phosphoramidon 10^-6 M
Source text: as §1, §2

guinea-pig trachea [6] = assay: Contraction of guinea pig trachea by tachykinin peptides (organ bath); conditions: cumulative additions, phosphoramidon 10^-6 M; for Emax (% of Ach 3 mM) / pD2: guinea-pig trachea, mean ± s.e.m. for n determinations (n = 6-12); for contractile effect on guinea-pig trachea: EKA/B 10^-8 M-10^-6 M
Source text: as §1, §2

guinea pig main bronchi [7] = assay: Contraction of guinea pig main bronchi by tachykinin peptides (organ bath); conditions: cumulative additions; phosphoramidon 10^-6 M; n = 6-7
Source text: as §3, §4

[8] = 10^-7 M, % of ACh 3 mM, mean ± s.e.m.

CC(=O)N(C)C1(c2ccccc2)CCN(CCCC2(c3ccc(Cl)c(Cl)c3)CCCN(C(=O)c3ccccc3)C2)CC1 (stereo in doubt) [SR 142801, (S)-(N)-(1-(3-(1-benzoyl-3-(3,4-dichlorophenyl)piperidin-3-yl)propyl)-4-phenylpiperidin-4-yl)-N-methylacetamide]
effect of antagonist on contraction by cumulative additions of hHK-1 (human bronchi [1]): did not alter

CC(=O)NC1(c2ccccc2)CCN(CC[C@H](CN(C)C(=O)c2ccccc2)c2ccc(Cl)c(Cl)c2)CC1 [SR 48968, (S)-N-methyl-N-[4-acetylamino-4-phenylpiperidino-2-(3,4-dichlorophenyl)butyl]benzamide]
effect of antagonist on contractions induced by hHK-1, guinea pig main bronchi (guinea pig main bronchi [2]): altered to a lesser extent | effect of antagonist on contractions induced by hHK-1, guinea-pig trachea (guinea-pig trachea [3]): altered to a lesser extent | response to a single addition of 10^-6 M hHK-1 in the presence of antagonist (human bronchi [1]): 31 ± 4% | effect of antagonist on contraction by cumulative additions of hHK-1 (human bronchi [1]): completely abolished | effect of antagonist on the response to [Sar^9,Met(O2)^11] SP (10^-6 M), single addition (human bronchi [1]): unmodified | effect of the association of SR 140333 and SR 48968 on contraction to a single addition of 10^-6 M hHK-1 (human bronchi [1]): abolished the smooth muscle contraction

CC(C)Oc1cccc(CC(=O)N2CCC[C@](CC[N+]34CCC(c5ccccc5)(CC3)CC4)(c3ccc(Cl)c(Cl)c3)C2)c1.[Cl-] [SR 140333, (S)1-(2-[3-(3,4-dichlorophenyl)-1-(3-isopropoxyphenylacetyl)piperidin-3-yl]ethyl)-4-phenyl-1-azoniabicyclo [2.2.2]octane chloride]
effect of antagonist on contractions induced by hHK-1, guinea pig main bronchi (guinea pig main bronchi [2]): abolished | effect on maximal contractions induced by hHK-1, guinea-pig trachea (guinea-pig trachea [3]; SR 140333 10^-9 to 10^-7 M, n = 4-11, suggesting non competitive antagonism): reduced maximal contractions | effect of antagonist on contractions induced by hHK-1, guinea-pig trachea (guinea-pig trachea [3]): abolished | response to a single addition of 10^-6 M hHK-1 in the presence of antagonist (human bronchi [1]): 31 ± 5% | effect of antagonist on contraction by cumulative additions of hHK-1 (human bronchi [1]): small but not statistically significant reduction | effect of antagonist on the response to [Sar^9,Met(O2)^11] SP (10^-6 M), single addition (human bronchi [1]): specifically abolished | effect of the association of SR 140333 and SR 48968 on contraction to a single addition of 10^-6 M hHK-1 (human bronchi [1]): abolished the smooth muscle contraction

[Sar^9,Met(O2)^11] substance P [[Sar^9,Met(O2)^11] SP]
contraction, first addition of [Sar^9,Met(O2)^11] SP (followed by a second addition of the same peptide) (human bronchi [4]; [8]): 33 ± 7% | contraction, initial addition of [Sar^9,Met(O2)^11] SP (followed by hHK-1) (human bronchi [4]; [8]): 32 ± 7% | contraction, second addition of [Sar^9,Met(O2)^11] SP after a first addition of [Sar^9,Met(O2)^11] SP (human bronchi [4]; 10^-7 M, % of ACh 3 mM, mean ± s.e.m., p < 0.01 vs first): 4 ± 1% | response to [Sar^9,Met(O2)^11] SP after a first addition of hHK-1 (human bronchi [4]; [Sar^9,Met(O2)^11] SP 10^-7 M after hHK-1 3.10^-7 M): abolished | Emax, cumulative additions in the presence of SR 48968 (human bronchi [5]; NK2 antagonist SR 48968 10^-7 M, inverted U-shaped curve, % of ACh 3 mM, mean ± s.e.m.): 13 ± 3% | pD2, single additions in the presence of SR 48968 (human bronchi [5]; NK2 antagonist SR 48968 10^-7 M, non cumulative additions, mean ± s.e.m., hHK-1 n = 5-7, [Sar^9,Met(O2)^11] SP n = 10): 8.0 ± 0.4 | maximal contraction, single additions in the presence of SR 48968 (human bronchi [5]; NK2 antagonist SR 48968 10^-7 M, non cumulative additions, sigmoid curve, % of ACh 3 mM, mean ± s.e.m., hHK-1 n = 5-7, [Sar^9,Met(O2)^11] SP n = 10): 26 ± 7% | Emax (% of Ach 3 mM) (guinea-pig trachea [6]): 76 ± 2 % of Ach 3 mM | pD2 (guinea-pig trachea [6]): 7.5 ± 0.1

[β-Ala^8]-NKA (4-10)
Emax (% of Ach 3 mM) (guinea-pig trachea [6]): 80 ± 5 % of Ach 3 mM | pD2 (guinea-pig trachea [6]): 8.3 ± 0.6

endokinin A/B [EKA/B]
-log EC20 (human bronchi [5]; negative log of concentration causing 20% of maximal contraction with ACh, cumulative additions, mean ± s.e.m., n = 3): 7.2 ± 0.3 | potency on guinea-pig isolated bronchi compared with SP and [Sar^9,Met(O2)^11] SP (guinea pig main bronchi [7]): less potent

endokinin C (KKAYQLEHTFQGLL; ends and bridges not checked; UniProt Q86UU9 82-95, looked up) [EKC, peptide derived from TAC4, custom synthesized]
contractile activity on human isolated bronchi (human bronchi [5]; cumulative additions, n = 3): devoid of any contractile activity | contractile effect on guinea-pig trachea (guinea-pig trachea [6]): without effect

endokinin D [EKD]
contractile activity on human isolated bronchi (human bronchi [5]; cumulative additions, n = 3): devoid of any contractile activity | contractile effect on guinea-pig trachea (guinea-pig trachea [6]): without effect
